According to ChEMBL document CHEMBL5223077, “Recent advances on synthesis and biological activities of aurones” (Bioorg Med Chem, 2021):
Values after ≈ are worked out from the molar mass of the structure shown.

Key:
[1] = test system: Mycobacterium tuberculosis; assay: Antimycobacterial activity against extensively drug resistant Mycobacterium tuberculosis; assay type: functional
[2] = test system: Mycobacterium tuberculosis; assay: Antimycobacterial activity against multidrug resistant Mycobacterium tuberculosis; assay type: functional

CC(=O)N1/C(=C\c2ccc(-c3ccsc3)cc2)C(=O)c2ccccc21
MIC [1]: 7.55 µM (≈ 2.61 µg/mL)
MIC [2]: 7.55 µM (≈ 2.61 µg/mL)
